From patent US20070043104A1, “UII-modulating compounds and their use” (priority 2005, published 2007) come the findings set out here.

Where a name gives a salt, the structure may show the parent alone. Read-outs that look alike come from different tables or passages of the source.

This test addresses T1, human urotensin II receptor (Homo sapiens, UniProt Q9UKP6).
T1 construct: expressed in transfected cells; host or cells: NIH3T3 cells
T1 sequence (Q9UKP6 1-389): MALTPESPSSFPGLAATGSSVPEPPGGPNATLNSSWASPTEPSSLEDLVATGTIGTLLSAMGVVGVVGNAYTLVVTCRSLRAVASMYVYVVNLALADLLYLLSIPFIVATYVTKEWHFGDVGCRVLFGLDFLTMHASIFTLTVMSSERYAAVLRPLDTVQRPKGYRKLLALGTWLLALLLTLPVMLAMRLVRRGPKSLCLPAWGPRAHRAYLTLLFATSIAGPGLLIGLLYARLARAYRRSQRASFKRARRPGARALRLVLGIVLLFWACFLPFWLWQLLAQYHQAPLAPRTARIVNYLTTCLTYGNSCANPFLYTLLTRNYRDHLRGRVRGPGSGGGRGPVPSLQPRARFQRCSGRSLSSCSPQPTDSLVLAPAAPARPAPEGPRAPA
Put plainly: Receptor Selection and Amplification (R-SAT) functional assay, NIH3T3 cells transfected with human urotensin II receptor and β-galactosidase marker. It counts as cell-based. Particulars: for pEC50 / EC50: eight doses in triplicate. The procedure: The functional receptor assay, Receptor Selection and Amplification Technology (R-SAT™), was used (with minor modifications from the procedure described previously (Brann, M. R. U.S. Pat. No. 5,707,798, 1998; Chem. Abstr. 1998, 128, 111548) to screen compounds for efficacy at the UII receptor. The RSAT assay was conducted as described herein.
Briefly, NIH3T3 cells were grown in tissue culture treated rollerbottles to 40-80% confluence in Dulbecco's modified Eagle's medium (DMEM) supplemented with 10% bovine calf serum (Hyclone) and 1% penicillin/streptomycin/glutamine (Invitrogen). Cells were transfected for 12-18 hours with the human urotensin II receptor and the β-galactosidase marker. After transfection, the cells were trypsinized, harvested and frozen in DMEM containing 10% DMSO. Frozen cells were later thawed and tested for a response to a control compound to perform quality control before initiation of pharmacological testing, ensuring the correct pharmacological response and sufficient sensitivity. To initiate the pharmacological assay, cells were thawed rapidly and prepared in DMEM media containing 0.4% calf serum (Hyclone), 30% UltraCulture (Biowhittaker), and 1% penicillin/streptomycin/glutamine (Invitrogen), and then plated at 10,000-40,000 cells per well of a 96½ area plate that contained either the test compounds or reference ligands. Cells were then grown in a humidified atmosphere with 5% ambient CO2 for five days. Media was then removed from the plates and marker gene activity was measured by the addition of the beta-galactosidase substrate ONPG (in PBS with 5% NP-40). The resulting colorimetric reaction was measured in a spectrophotometric plate reader (Titertek Inc.) at […].
pEC50 represents the negative logarithm of the concentration of ligand that caused 50% activation of the basal receptor response. Percent activation was calculated as the difference between the absorbance measurements in the absence of added ligand compared with that in the presence of saturating concentrations of ligand normalized to the absorbance difference for the reference ligand, which was assigned a value of 100%.
Results were determined in R-SAT assays and are expressed as pEC50, the negative of the log EC50 in molarity. Results are the average±standard deviation of 2-X determinations of the EC50 where each compound was tested in eight doses in triplicate.

[1] abbreviates: NIH3T3, Table 3, percent activation normalized to the reference ligand assigned 100%, read-out: Efficacy.
[2] abbreviates: Table 3, negative of the log EC50 in molarity, average ± standard deviation (or range) of determinations.
[3] abbreviates: NIH3T3, Table 4, % efficacy normalized to UII at 100%.
[4] abbreviates: Table 4, negative of the log EC50 in molarity, average ± standard deviation of 2-5 determinations.

What is called pEC50 is the EC50 on a negative log10 scale, so that one unit is a factor of ten. Read a high pEC50 as a low EC50. As usually defined, the EC50 is the concentration giving half of the maximal effect. High values mean a less potent agent, low ones a more potent agent.

For `Cc1cc(C)c(C(=O)OC(CCN(C)C)c2ccc(Cl)cc2)cc1C.Cl` (stereo not shown) [4i, 1-(4-Chlorophenyl)-3-dimethylamino-propyl 2,4,5-trimethyl-benzoate HCl], under setting [1], the Emax is 60 ± 4%. Besides, under setting [2], the pEC50 is recorded as 6.33 ± 0.6.
For `COc1cccc(C(=O)NC(CCN(C)C)c2ccc(Cl)cc2)c1C.O=C(O)C(=O)O` (stereo not shown) [5g, N-[1-(4-Chlorophenyl)-3-dimethylamino-propyl]-3-methoxy-2-methyl-benzamide oxalate], the Emax under setting [1] came to 179 ± 11%. Under setting [2], this compound displayed a pEC50 of 5.37 ± 0.14.
`COc1ccc(CCC(=O)NC(CCN(C)C)c2ccc(C)cc2)cc1` (stereo not shown) [B6, N-[3-Dimethylamino-1-(4-methylphenyl)propyl]-3-(4-methoxyphenyl)propionamide HCl] gave an Emax under setting [3] of 67 ± 14%. Also, the midpoint of the response under setting [4], the EC50, lay at 5370 nM.
On to `Cc1ccsc1C(=O)OC(CCN(C)C)c1ccc(Cl)cc1.Cl` (stereo not shown) [4j, 1-(4-Chlorophenyl)-3-dimethylamino-propyl 3-methyl-thiophene-2-carboxylate HCl], for which, under setting [1], the Emax was 119 ± 44%. The compound further showed a pEC50 under setting [2] of 5.60 ± 0.05.
The matching figures for `CN(C)CCC(NC(=O)c1ccc2c(c1)OCO2)c1ccc(Cl)cc1.O=C(O)C(=O)O` (stereo not shown) [5l, N-(1-(4-chlorophenyl)-3-(dimethylamino)propyl)benzo [d][1,3]dioxole-5-carboxamide oxalate]: 148 ± 32% and 5.67 ± 0.17.
Under setting [3], `CN(C)CCC(NC(=O)Cc1ccccc1)c1ccc(Cl)cc1` (stereo not shown) [A1, N-[1-(4-Chlorophenyl)-3-dimethylamino-propyl]-2-phenylacetamide HCl] yielded an Emax of 76 ± 5%. Under setting [4], this compound had an EC50 of 1860 nM.
Consider `Cc1ccc(C(CCN(C)C)NC(=O)Cc2ccc(C(F)(F)F)cc2)cc1` (stereo not shown) [B2, N-[3-Dimethylamino-1-(4-methylphenyl)propyl]-2-(4-trifluoromethylphenyl)acetamide HCl], for which the Emax under setting [3] was determined as 25 ± 4%. Also, under setting [4], the EC50 is 1120 nM.
On the same counts, the results for `COc1ccc(C=CC(=O)NC(CCN(C)C)c2ccc(Cl)cc2)cc1` (stereo not shown) [A9, N-[1-(4-Chlorophenyl)-3-dimethylamino-propyl]-4-methoxy-cinnamic amide HCl] are 99 ± 4% and 513 nM.
Take `Cc1cc(C)c(C(=O)NC(CCN(C)C)c2ccc(Cl)cc2)cc1C.O=C(O)C(=O)O` (stereo not shown) [5m, N-[1-(4-Chlorophenyl)-3-dimethylaminopropyl]-2,4,5-trimethyl-benzamide oxalate]: the Emax under setting [1] was determined as 152 ± 20%. The compound also registered a pEC50 under setting [2] of 5.75 ± 0.22.
`CN(C)CCC(NC(=O)c1ccc(N(C)C)cc1)c1ccc(Cl)cc1.O=C(O)C(=O)O` (stereo not shown) [5e, N-[1-(4-Chlorophenyl)-3-dimethylaminopropyl]-4-dimethylamino-benzamide oxalate]: under setting [1], the Emax was 145 ± 25%. This compound returned a pEC50 under setting [2] of 5.87 ± 0.17.
`CN(C)CCC(OC(=O)c1cn(C)c2ccccc12)c1ccc(Cl)cc1` (stereo not shown) [4o, 1-(4-Chlorophenyl)-3-dimethylamino-propyl 1-methyl-indole-3-carboxylate HCl]: under setting [1], the Emax worked out at 115 ± 71%. The concentration for a half-maximal effect (EC50) under setting [2] was 1620 nM.
`Cc1ccccc1NC(=O)OC(CCN(C)C)c1ccc(Cl)cc1` (stereo not shown) [7a, N-[1-(4-Chlorophenyl)-3-dimethylaminopropyloxycarbonyl]-2-methylphenyl-amine]: the Emax under setting [1] came out at 170 ± 21%. For the same compound, the negative logarithm of the EC50 (pEC50) under setting [2] was determined as 5.41 ± 0.07.
Take `COc1cccc(NC(=O)NC(CCN(C)C)c2ccc(Cl)cc2)c1` (stereo not shown) [8b, 1-[1-(4-Chlorophenyl)-3-dimethylaminopropyl]-3-(3-methoxyphenyl)-carbamide oxalate]: the Emax under setting [1] is 147 ± 26%. Besides, under setting [2], the pEC50 was found to be 5.87 ± 0.17.
In the case of `CN(C)CCC(NC(=O)C=Cc1ccc(C(F)(F)F)cc1)c1ccc(Cl)cc1` (stereo not shown) [A8, N-[1-(4-Chlorophenyl)-3-dimethylamino-propyl]-4-trifluoromethyl-cinnamic amide HCl], under setting [3], the Emax was 133 ± 3%. Further, under setting [4], the EC50 was 129 nM.
Take “(+)-N-[1-Chlorophenyl)-3-dimethylaminopropyl]-(R)-2-methoxy-2-phenyl-acetamide oxalate [(+) 5s]”: the pEC50 under setting [2] amounted to 5.30 ± 0.07. The Efficacy (Table 3, percent activation normalized to the reference ligand assigned 100%) was 112 ± 22%.
On to `Cc1c(Cl)cccc1C(=O)NC(CCN(C)C)c1ccc(Cl)cc1.O=C(O)C(=O)O` (stereo not shown) [5h, N-[1-(4-Chlorophenyl)-3-dimethylamino-propyl]-3-chloro-2-methyl-benzamide oxalate], for which, under setting [1], the Emax amounted to 142 ± 14%. Under setting [2], this compound displayed a pEC50 of 5.76 ± 0.13.
As for `CN(C)CCC(NC(=O)Nc1ccc(C(C)(C)C)cc1)c1ccc(Cl)cc1` (stereo not shown) [8c, 1-[1-(4-Chlorophenyl)-3-dimethylaminopropyl]-3-(4-tert-butylphenyl)-carbamide oxalate], the Emax under setting [1] stood at 101 ± 36%. This compound also had an EC50 under setting [2] of 186 nM.
For the compound `Cc1ccc(C(=O)OC(CCN(C)C)c2ccc(Cl)cc2)cc1.Cl` (stereo not shown) [4c, 1-(4-Chlorophenyl)-3-dimethylamino-propyl 4-methyl-benzoate HCl], under setting [1], the Emax came to 56 ± 6%. In addition, the pEC50 under setting [2] is listed as 5.56 ± 0.01.
As to `CN(C)CCC(OC(=O)Nc1ccc(C(F)(F)F)cc1)c1ccc(Cl)cc1` (stereo not shown) [7i, N-[1-(4-Chlorophenyl)-3-dimethylaminopropyloxycarbonyl]-4-trifluoromethylphenyl-amine], the Emax under setting [1] was in the range of 70 to 114%. In addition, the EC50 under setting [2] is 178 to 309 nM.
On to `Cc1ccccc1C(=O)NC(CCN(C)C)c1ccc(Cl)cc1.O=C(O)C(=O)O` (stereo not shown) [5b, N-[1-(4-Chlorophenyl)-3-dimethylamino-propyl]-2-methyl-benzamide oxalate], for which, under setting [1], the Emax came out at 175 ± 15%. Under setting [2], this compound displayed a pEC50 of 5.45 ± 0.04.
In the case of `CN(C)CCC(OC(=O)c1cccc2ccccc12)c1ccc(Cl)cc1.Cl` (stereo not shown) [4k, 1-(4-Chlorophenyl)-3-dimethylamino-propyl naphthalene-1-carboxylate HCl], under setting [1], the Emax was determined as 95 ± 24%. The pEC50 under setting [2] is given as 5.64 ± 0.02.
Take `CCc1ccccc1C(=O)OC(CCN(C)C)c1ccc(Cl)cc1.Cl` (stereo not shown) [4b, 1-(4-Chlorophenyl)-3-dimethylamino-propyl 2-ethyl-benzoate HCl]: under setting [1], the Emax came out at 128 ± 31%. This compound yielded a pEC50 under setting [2] of 5.89 ± 0.05.
Take `CN(C)CCC(OC(=O)c1cc2ccccc2n1C)c1ccc(Cl)cc1` (stereo not shown) [4n, 1-(4-Chlorophenyl)-3-dimethylamino-propyl 1-methyl-indole-2-carboxylate HCl]: the Emax under setting [1] was 104 ± 34%. Under setting [2], this compound gave an EC50 of 1910 nM.
With `CN(C)CCC(NC(=O)c1ccc(Oc2ccccc2)cc1)c1ccc(Cl)cc1.O=C(O)C(=O)O` (stereo not shown) [5p, N-[1-(4-Chlorophenyl)-3-dimethylaminopropyl]-4-phenoxy-benzamide oxalate], under setting [1], the Emax was 91 ± 17%. Under setting [2], this compound showed a pEC50 of 7.18 ± 0.2.
Take `CN(C)CCC(OC(=O)Nc1ccc2ccccc2c1)c1ccc(Cl)cc1` (stereo not shown) [7g, N-[1-(4-Chlorophenyl)-3-dimethylaminopropyloxycarbonyl]-2-naphthyl-amine]: the Emax under setting [1] is 74 to 107%. Further, the EC50 under setting [2] is 263 to 759 nM.
Consider `Cc1ccc(C)c(C(=O)NC(CCN(C)C)c2ccc(Cl)cc2)c1.O=C(O)C(=O)O` (stereo not shown) [5j, N-[1-(4-Chlorophenyl)-3-dimethylamino-propyl]-2,5-dimethyl-benzamide oxalate], for which the Emax under setting [1] was 164 ± 20%. The compound also gave a pEC50 under setting [2] of 5.54 ± 0.04.
Take `CN(C)CCC(OC(=O)c1ccc(-c2ccccc2)cc1)c1ccc(Cl)cc1.Cl` (stereo not shown) [4m, 1-(4-Chlorophenyl)-3-dimethylamino-propyl 4-phenyl-benzoate HCl]: under setting [1], the Emax came out at 53 ± 27%. The pEC50 under setting [2] is reported as 6.28 ± 0.14.
On to `CN(C)CCC(OC(=O)NCc1ccccc1)c1ccc(Cl)cc1` (stereo not shown) [7e, N-[1-(4-Chlorophenyl)-3-dimethylaminopropyloxycarbonyl]-benzyl-amine], for which the Emax under setting [1] worked out at 180 ± 8%. Under setting [2], the pEC50 is listed as 5.67 ± 0.11.
Compound `CN(C)CCC(NC(=O)C#Cc1ccccc1)c1ccc2ccccc2c1` (stereo not shown) [C10, N-[3-Dimethylamino-1-(2-naphthyl)propyl]-3-phenylpropiolic amide HCl] gave an Emax under setting [3] of 115 ± 14%. Also, under setting [4], the midpoint of the response, the EC50, lay at 457 nM.
